In one data set the test system is Enterococcus faecalis. The data set can be described thus: Antimicrobial activity against Enterococcus faecalis incubated for 16 to 18 hrs by broth dilution assay. As to conditions: time 16-18 hrs. Format: functional. (Broth dilution looks for growth in wells or tubes with falling amounts of substance.)
Another data set concerns Escherichia coli. The data set is described as follows: Antimicrobial activity against Escherichia coli incubated for 16 to 18 hrs by broth dilution assay. Type of data set: functional. The note with it: time 16-18 hrs.
For a further data set, the system named is Staphylococcus aureus. The data set is described as follows: Antimicrobial activity against Staphylococcus aureus incubated for 16 to 18 hrs by broth dilution assay. Type of data set: functional. As to conditions: time 16-18 hrs.
Data set [1] relates to Stenotrophomonas maltophilia. The data set can be described thus: Antimicrobial activity against Stenotrophomonas maltophilia incubated for 16 to 18 hrs by broth dilution assay. Type of data set: functional. As to conditions: time 16-18 hrs.
Data set [2] in a line: Hemolytic activity in sheep red blood cells incubated for 1 hr. Format: toxicity, cell-based, Ovis aries, Erythrocyte.

≈ marks a conversion by molar mass, not a printed value. Where only a bound is given, the exact number is not on record here.

The term MIC denotes the lowest concentration that inhibits growth of the organism. Read a low MIC as greater potency. As to `CCCC[n+]1ccc(C(=O)N[C@@H]2C(=O)N3C(C(=O)OC(c4ccccc4)c4ccccc4)=C(COC(C)=O)CS[C@H]23)cc1.[I-]`, the MIC against Enterococcus faecalis was 128 µg/mL; against Escherichia coli it was more than 128 µg/mL; against Staphylococcus aureus it was 128 µg/mL; in data set [1], more than 128 µg/mL.
In turn, `CCCCCCNC(=O)c1ccc[n+](CC2=C(C(=O)OCc3ccc(OC)cc3)N3C(=O)[C@@H](NC(=O)Cc4ccccc4)[C@H]3SC2)c1.[I-]` returned an MIC against Staphylococcus aureus of 0.25 µg/mL.
As usually defined, the HC50 is the concentration giving 50% haemolysis. A higher HC50 goes with less damage to red cells. As to `CCCCCCNC(=O)c1ccc[n+](CC2=C(C(=O)O)N3C(=O)[C@@H](NC(=O)Cc4ccccc4)[C@H]3SC2)c1.[I-]`, the MIC in the data set with Enterococcus faecalis came to 16 µg/mL; against Escherichia coli it was 64 µg/mL; in the data set with Staphylococcus aureus, 0.125 µg/mL; in data set [1], 64 µg/mL. The molecule further returned an HC50 at 1 h in data set [2] of more than 1280 µg/mL.
In the case of `CCCCCCCC[n+]1ccc(-c2cc[n+](CC3=C(C(=O)OCc4ccc(OC)cc4)N4C(=O)[C@@H](NC(=O)Cc5ccccc5)[C@H]4SC3)cc2)cc1.[I-].[I-]`, the MIC worked out at 32 µg/mL in the data set with Enterococcus faecalis, 128 µg/mL with Escherichia coli, 0.5 µg/mL in the data set on Staphylococcus aureus and 128 µg/mL in data set [1]. In data set [2], this molecule gave an HC50 at 1 h of more than 1280 µg/mL.
For the molecule `CCCCCCCC[n+]1ccc(-c2cc[n+](CC3=C(C(=O)[O-])N4C(=O)[C@@H](NC(=O)Cc5ccccc5)[C@H]4SC3)cc2)cc1.O=C([O-])C(F)(F)F`, the MIC against Enterococcus faecalis stood at 16 µg/mL; against Escherichia coli, 64 µg/mL; with Staphylococcus aureus it was 0.125 µg/mL; in data set [1], 64 µg/mL. The concentration for 50% haemolysis (HC50) at 1 h in data set [2] was more than 1280 µg/mL.
As for `CCCCCC[n+]1ccc(SCC2=C(C(=O)OCc3ccc(OC)cc3)N3C(=O)[C@@H](NC(=O)Cc4ccccc4)[C@H]3SC2)cc1.O=C([O-])C(F)(F)F`, the MIC with Enterococcus faecalis stood at 16 µg/mL; in the data set with Escherichia coli, 64 µg/mL; with Staphylococcus aureus it was 0.063 µg/mL; in data set [1] it was 64 µg/mL.
For the molecule `CCCCNC(=O)c1ccc[n+](CC2=C(C(=O)O)N3C(=O)[C@@H](NC(=O)Cc4ccccc4)[C@H]3SC2)c1.[I-]`, the MIC with Enterococcus faecalis was 32 µg/mL; against Escherichia coli it was 64 µg/mL; in the data set on Staphylococcus aureus, 0.125 µg/mL; in data set [1] it was 128 µg/mL. Further, the HC50 at 1 h in data set [2] was more than 1280 µg/mL.
For the molecule `COc1ccc(COC(=O)C2=C(C[n+]3ccccc3)CS[C@@H]3[C@H](NC(=O)Cc4ccccc4)C(=O)N23)cc1.[I-]`, inhibition of growth with Staphylococcus aureus (MIC) required 0.25 µg/mL.
Same read-out and setting: the same measure for `CCCCCCNC(=O)c1cc[n+](CC2=C(C(=O)OCc3ccc(OC)cc3)N3C(=O)[C@@H](NC(=O)Cc4ccccc4)[C@H]3SC2)cc1.[I-]`: 0.25 µg/mL.
Take `CCCCNC(=O)c1cc[n+](CC2=C(C(=O)O)N3C(=O)[C@@H](NC(=O)Cc4ccccc4)[C@H]3SC2)cc1.[I-]`: the MIC in the data set with Enterococcus faecalis was 32 µg/mL; against Escherichia coli it was 32 µg/mL; against Staphylococcus aureus it was 0.125 µg/mL; in data set [1], 64 µg/mL. The molecule also returned an HC50 at 1 h in data set [2] of more than 1280 µg/mL.
In the case of `CCCCCCNC(=O)c1cc[n+](CC2=C(C(=O)O)N3C(=O)[C@@H](NC(=O)Cc4ccccc4)[C@H]3SC2)cc1.[I-]`, the MIC in the data set on Enterococcus faecalis was 16 µg/mL; with Escherichia coli it was 64 µg/mL; against Staphylococcus aureus it was 0.125 µg/mL; in data set [1], 64 µg/mL. In data set [2], the HC50 at 1 h was more than 1280 µg/mL.
Molecule `C[C@@H](O)[C@H]1C(=O)N2C(C(=O)O)=C(S[C@@H]3CN[C@H](C(=O)N(C)C)C3)[C@H](C)[C@H]12` [MEROPENEM] came in with an HC50 at 1 h in data set [2] of more than 1280 µg/mL. For the same molecule, the MIC (against Escherichia coli; in data set [1]) was 0.031 µg/mL (≈ 0.0808 µM) each time.
Regarding `CCCCCC[n+]1ccc(SCC2=C(C(=O)O)N3C(=O)[C@@H](NC(=O)Cc4ccccc4)[C@H]3SC2)cc1.O=C([O-])C(F)(F)F`, the MIC against Enterococcus faecalis was found to be 8 µg/mL; against Escherichia coli it was 32 µg/mL; against Staphylococcus aureus, 0.063 µg/mL; in data set [1], 32 µg/mL.
Take `CCCC[n+]1ccc(SCC2=C(C(=O)OCc3ccc(OC)cc3)N3C(=O)[C@@H](NC(=O)Cc4ccccc4)[C@H]3SC2)cc1.O=C([O-])C(F)(F)F`: the MIC against Enterococcus faecalis is 16 µg/mL; against Escherichia coli, 16 µg/mL; against Staphylococcus aureus, 0.125 µg/mL; in data set [1] it was 32 µg/mL.
`CCCCCCCCCCCCCCNC(=O)c1ccc[n+](CC2=C(C(=O)OCc3ccc(OC)cc3)N3C(=O)[C@@H](NC(=O)Cc4ccccc4)[C@H]3SC2)c1.[I-]` yielded an MIC in the data set with Staphylococcus aureus of 0.25 µg/mL.
As to `CC(=O)OCC1=C(C(=O)O)N2C(=O)[C@@H](NC(=O)c3ccncc3)[C@H]2SC1`, the minimum inhibitory concentration (MIC) is more than 128 µg/mL in the data set with Enterococcus faecalis, more than 128 µg/mL with Escherichia coli, 16 µg/mL (≈ 42.4 µM) against Staphylococcus aureus and more than 128 µg/mL in data set [1].
As for `CCCCCCCCCC[n+]1ccc(C(=O)N[C@@H]2C(=O)N3C(C(=O)O)=C(COC(C)=O)CS[C@H]23)cc1.[I-]`, the MIC is 128 µg/mL with Enterococcus faecalis, more than 128 µg/mL with Escherichia coli, 128 µg/mL against Staphylococcus aureus and more than 128 µg/mL in data set [1].
Consider `O=C(Cc1ccccc1)N[C@@H]1C(=O)N2C(C(=O)O)=C(CSc3ccncc3)CS[C@H]12`, for which the MIC was found to be 16 µg/mL (≈ 36.2 µM) against Enterococcus faecalis, 64 µg/mL (≈ 145 µM) against Escherichia coli, 0.063 µg/mL (≈ 0.143 µM) against Staphylococcus aureus and 64 µg/mL (≈ 145 µM) in data set [1].
In the case of `CC(=O)OCC1=C(C(=O)OC(c2ccccc2)c2ccccc2)N2C(=O)[C@@H](NC(=O)c3cc[n+](C)cc3)[C@H]2SC1.[I-]`, the MIC was more than 128 µg/mL in the data set with Enterococcus faecalis, more than 128 µg/mL against Escherichia coli, 128 µg/mL with Staphylococcus aureus and more than 128 µg/mL in data set [1].
With `CCCC[n+]1ccc(SCC2=C(C(=O)O)N3C(=O)[C@@H](NC(=O)Cc4ccccc4)[C@H]3SC2)cc1.O=C([O-])C(F)(F)F`, the MIC in the data set with Enterococcus faecalis came to 8 µg/mL; with Escherichia coli, 4 µg/mL; in the data set with Staphylococcus aureus, 0.063 µg/mL; in data set [1], 8 µg/mL.
As to `CC[n+]1ccc(SCC2=C(C(=O)O)N3C(=O)[C@@H](NC(=O)Cc4ccccc4)[C@H]3SC2)cc1.O=C([O-])C(F)(F)F`, the MIC with Enterococcus faecalis was 8 µg/mL; against Escherichia coli, 8 µg/mL; in the data set with Staphylococcus aureus it was 0.063 µg/mL; in data set [1] it was 8 µg/mL.
`CCCCNC(=O)c1ccc[n+](CC2=C(C(=O)OCc3ccc(OC)cc3)N3C(=O)[C@@H](NC(=O)Cc4ccccc4)[C@H]3SC2)c1.[I-]` registered an MIC in the data set on Staphylococcus aureus of 0.25 µg/mL.
As for `CC[n+]1ccc(SCC2=C(C(=O)OCc3ccc(OC)cc3)N3C(=O)[C@@H](NC(=O)Cc4ccccc4)[C@H]3SC2)cc1.O=C([O-])C(F)(F)F`, the MIC against Enterococcus faecalis is 16 µg/mL; with Escherichia coli, 16 µg/mL; in the data set with Staphylococcus aureus, 0.125 µg/mL; in data set [1], 16 µg/mL.
Turning to `CC(=O)OCC1=C(C(=O)O)N2C(=O)[C@@H](NC(=O)c3cc[n+](C)cc3)[C@H]2SC1.[I-]`, the MIC in the data set on Enterococcus faecalis was more than 128 µg/mL; against Escherichia coli it was more than 128 µg/mL; in the data set with Staphylococcus aureus, 128 µg/mL; in data set [1], more than 128 µg/mL.
In the data set with Staphylococcus aureus, `CCCCCCCCCCCCNC(=O)c1ccc[n+](CC2=C(C(=O)OCc3ccc(OC)cc3)N3C(=O)[C@@H](NC(=O)Cc4ccccc4)[C@H]3SC2)c1.[I-]` returned an MIC of 0.25 µg/mL.
On the same count and under the same terms, the same measure for `CCCCNC(=O)c1cc[n+](CC2=C(C(=O)OCc3ccc(OC)cc3)N3C(=O)[C@@H](NC(=O)Cc4ccccc4)[C@H]3SC2)cc1.[I-]`: 0.25 µg/mL.
Take `CCCC[n+]1ccc(C(=O)N[C@@H]2C(=O)N3C(C(=O)O)=C(COC(C)=O)CS[C@H]23)cc1.[I-]`: the MIC (against Enterococcus faecalis; in the data set on Escherichia coli; in the data set with Staphylococcus aureus; in data set [1]) was more than 128 µg/mL in each case.

The values are drawn from ChEMBL document CHEMBL6115036, “Exploration of membrane-active cephalosporin derivatives as potent antibacterial agents against Staphylococcus aureus biofilms and persisters” (Eur J Med Chem, 2025).
